Assay results: paper PMC2676060 (European journal of medicinal chemistry, 2008)

Legend:
[1] = molecular target: recombinant HIV-1 RT enzyme (p66/51 dimer) (Human immunodeficiency virus type 1 group M subtype B, UniProt P03366); assay: RT inhibition assay, poly; type: biochemical; conditions: for HIV-1 RT inhibition (in words): poly(rC)·oligo(dG) as template primer
[2] = cited from earlier work

COC(=O)CCC/C=C(\c1cc(F)cc(C(F)(F)F)c1)c1cc(C)c2onc(OC)c2c1 [Compound 1]
IC50 [1]: 900 nM

COC(=O)CCC/C=C(/c1cc(C)c2onc(OC)c2c1)c1cc(C)c2oc(=O)n(C)c2c1 [Compound 2]
stability in rat blood plasma (in words) [2]: unstable

COC(=O)CCC/C=C(\c1cc(C)c(OC)c(C(=O)OC)c1)c1cc(C)c2onc(OC)c2c1 [Compound 3, (Z)-2-Methoxy-5-[5-methoxycarbonyl-1-(3-methoxy-7-methylbenzo[d]isoxazol-5-yl)-pent-1-enyl]-3-methylbenzoic acid methyl ester]
IC50 [1]: 910 nM

COC(=O)c1cc(/C(=C/CCN2CCOC2=O)c2cc(C)c3onc(OC)c3c2)cc(C)c1OC [Compound 5, (E)-2-Methoxy-5-[1-(3-methoxy-7-methylbenzo[d]isoxazol-5-yl)-4-(2-oxoxazolidin-3-yl)-but-1-enyl]-3-methylbenzoic acid methyl ester]
HIV-1 RT inhibition (in words) [1]: much less active

COC(=O)c1cc(/C(=C/CCN2CCOC2=O)c2cc(C)c3onc(OC)c3c2)cc(Cl)c1OC [Compound 6, (E)-3-Chloro-2-methoxy-5-[1-(3-methoxy-7-methyl-benzo[d]isoxazol-5-yl)-4-(2-oxoxazolidin-3-yl)-but-1-enyl]-benzoic acid methyl ester]
HIV-1 RT inhibition (in words) [1]: much less active

COc1noc2c(C)cc(C(=CCCN3CCOC3=O)c3cc(C)c4onc(OC)c4c3)cc12 [Compound 7, 3-[4,4-Bis-(3-methoxy-7-methyl-benzo[d]isoxazol-5-yl)-but-3-enyl]-oxazolidin-2-one]
HIV-1 RT inhibition (in words) [1]: active

COc1noc2c(C)cc(/C(=C\CCN3CCOC3=O)c3cc(C)c4oc(=O)n(C)c4c3)cc12 [Compound 8, (E)-5-[1-(3-Methoxy-7-methylbenzo[d]isoxazol-5-yl)-4-(2-oxoxazolidin-3-yl)-but-1-enyl]-3,7-dimethyl-3H-benzoxazol-2-one]
HIV-1 RT inhibition (in words) [1]: much less active

COc1noc2c(C)cc(/C(=C\CCN3CCOC3=O)c3cccc(C#N)c3)cc12 [Compound 9, (Z)-3-[1-(3-Methoxy-7-methylbenzo[d]isoxazol-5-yl)-4-(2-oxoxazolidin-3-yl)-but-1-enyl]-benzonitrile]
HIV-1 RT inhibition (in words) [1]: much less active
